Measured values: patent US11202773B2, “Locally bioavailable drugs” (UNIVERSITY OF HOUSTON SYSTEM, priority 2015, dated 2021)
Marks after values point to notes of the source that are not given here.

Key:
[1] = from http://www.drugbank.ca/drugs/DB00482; cited from earlier work
[2] = system: rat liver microsomes; assay: Glucuronidation by rat liver microsomes; format: in vitro ADME; conditions: rat, 10 μM, pH 7.4
Description: (§1) FIG. 5A is a bar graph illustrating in vitro metabolism of phenolics via glucuronidation pathway. Glucuronidation rates of all the new locally bioavailable COX-2 inhibitors by rat liver microsomes. Additional metabolic rates of various locally bioavailable COX-2 inhibitors are in Table 3. […]. The incubation systems were: for glucuronidation, 0.88 mM magnesium chloride (MgCl2), 4.4 mM saccharolactone, 0.022 mg/mL alamethicin, 3.5 mM uridine 5′-diphospho-glucuronic acid (UDPGA), 10 μM substrates and different concentrations of microsomes in 50 mM potassium phosphate buffer (pH 7.4); for sulfation, 10 mM dithiothreitol (DTT), 5 mM MgCl2, 100 μM 3′-phosphoadenosine-5′-phosphosulfate (PAPS),10 μM substrate and different concentrations of S9 fractions in 50 mM potassium phosphate buffer (pH 7.4).
(§2) In vitro tools were employed to help predict the in vivo metabolism rates of the COX-2 inhibitors that are phenolics. The microsomes and S9 fractions prepared from colon or liver were used to determine the in vivo glucuronidation and sulfation rates of the phenolic compounds, respectively. By employing microsomes and S9 fractions prepared from both rats and humans, it could be determined if the results obtained in the rat model could be reasonably extrapolated to humans. In these experiments, raloxifene and genistein, two phenolic compounds which undergo extensive first-pass metabolism, were selected as controls.

[3] = system: rat liver S9; assay: Sulfation by rat liver S9 fractions; format: in vitro ADME; conditions: 10 μM, pH 7.4
Description: as §1, with “FIG. 5C” for “FIG. 5A”, “via sulfonation” for “via glucuronidation”, “pathway. Sulfation” for “pathway. Glucuronidation”, “of 6a1-6a4” for “of all the new locally bioavailable COX-2 inhibitors”, “liver and colon S9 fractions.” for “liver microsomes.”, “μM 3′-phosphoadeno sine-5′-phosphosulfate” for “μM 3′-phosphoadenosine-5′-phosphosulfate”
as §2

[4] = system: rat colon microsomes; assay: Glucuronidation by rat colon microsomes; format: in vitro ADME; conditions: rat, 10 μM, pH 7.4
Description: as §1, with “5B” for “5A”, “glucuronidation” for “metabolism”, “in liver and colon microsomes of rats.” for “via glucuronidation pathway.”, “6a1-6a4” for “all the new locally bioavailable COX-2 inhibitors”, “and colon microsomes were measured.” for “microsomes.”, “(PAPS), 10” for “(PAPS),10”
as §2

[5] = system: rat colon S9; assay: Sulfation by rat colon S9 fractions; format: in vitro ADME; conditions: 10 μM, pH 7.4
Description: as §1, with “FIG. 5C” for “FIG. 5A”, “via sulfonation” for “via glucuronidation”, “pathway. Sulfation” for “pathway. Glucuronidation”, “of 6a1-6a4” for “of all the new locally bioavailable COX-2 inhibitors”, “liver and colon S9 fractions.” for “liver microsomes.”, “μM 3′-phosphoadeno sine-5′-phosphosulfate” for “μM 3′-phosphoadenosine-5′-phosphosulfate”
as §2

[6] = system: human liver microsomes; assay: Glucuronidation by human liver microsomes; format: in vitro ADME; conditions: human, 10 μM, pH 7.4
Description: as §1, with “FIG. 5D” for “FIG. 5A”, “of phenolics.” for “of phenolics via glucuronidation pathway.”, “of 6a1-6a4” for “of all the new locally bioavailable COX-2 inhibitors”, “by human” for “by rat”, “liver and intestinal” for “liver”, “Table 4.” for “Table 3.”
as §2

[7] = system: human liver S9; assay: Sulfation by human liver S9; format: in vitro ADME; conditions: 10 μM, pH 7.4
Description: as §1, with “FIG. 5D” for “FIG. 5A”, “of phenolics.” for “of phenolics via glucuronidation pathway.”, “of 6a1-6a4” for “of all the new locally bioavailable COX-2 inhibitors”, “by human” for “by rat”, “liver and intestinal” for “liver”, “Table 4.” for “Table 3.”
as §2

[8] = system: human intestine microsomes; assay: Glucuronidation by human intestine microsomes; format: in vitro ADME; conditions: human, 10 μM, pH 7.4
Description: as §1, with “FIG. 5D” for “FIG. 5A”, “of phenolics.” for “of phenolics via glucuronidation pathway.”, “of 6a1-6a4” for “of all the new locally bioavailable COX-2 inhibitors”, “by human” for “by rat”, “liver and intestinal” for “liver”, “Table 4.” for “Table 3.”
as §2

[9] = system: human intestine S9; assay: Sulfation by human intestine S9; format: in vitro ADME; conditions: 10 μM, pH 7.4
Description: as §1, with “FIG. 5D” for “FIG. 5A”, “of phenolics.” for “of phenolics via glucuronidation pathway.”, “of 6a1-6a4” for “of all the new locally bioavailable COX-2 inhibitors”, “by human” for “by rat”, “liver and intestinal” for “liver”, “Table 4.” for “Table 3.”
as §2

SMILES	LogP [1]	Glucuronidation rates by liver microsomes (Mean) [2]	Sulfation rates by liver S9 (Mean) [3]	Glucuronidation rates by colon microsomes (Mean) [4]	Sulfation rates by colon S9 (Mean) [5]	Glucuronidation rates by liver microsomes (Mean) [6]	Sulfation rates by liver S9 (Mean) [7]	Glucuronidation rates by intestine microsomes (Mean) [8]	Sulfation rates by human intestine S9 (Mean) [9]
Cc1ccc(-c2cc(C(F)(F)F)nn2-c2ccc(S(N)(=O)=O)cc2)cc1 [Celecoxib, celecoxib]	4.01^b								
O=C(c1ccc(OCCN2CCCCC2)cc1)c1c(-c2ccc(O)cc2)sc2cc(O)ccc12 [Raloxifene, reference compound]		402 pmol/mg/min	100 pmol/mg/min	54 pmol/mg/min	0 pmol/mg/min	681 pmol/mg/min	19 pmol/mg/min	2846 pmol/mg/min	58 pmol/mg/min
